Results published in patent US10206907B2, “Compounds useful for the treatment of degenerative and inflammatory diseases” (GALAPAGOS NV, priority 2008, dated 2019).

The molecules below were run against Recombinant human JAK2 catalytic domain (Homo sapiens (Human), UniProt O60674) (assay: JAK2 inhibition assay). Conditions: semi-quantitative score.
Assay type: biochemical
Protocol: After 90 min at 30° C., reactions were stopped by adding of 25 μL/well of 150 mM phosphoric acid. […] Plates were washed 6 times with 300 μL per well of a 75 mM phosphoric acid solution and the bottom of the plates was sealed. 40 μL/well of Microscint-20 was added, the top of the plates was sealed and readout was performed using the Topcount (Perkin Elmer). Kinase activity was calculated by subtracting counts per minute (cpm) obtained in the presence of a positive control inhibitor (10 μM staurosporine) from cpm obtained in the presence of vehicle. The ability of a test compound to inhibit this activity was determined as: Percentage inhibition=((cpm determined for sample with test compound present−cpm determined for sample with positive control inhibitor) divided by (cpm determined in the presence of vehicle−cpm determined for sample with positive control inhibitor))*100%.
Dose dilution series were prepared for the compounds enabling the testing of dose-response effects in the JAK2 assay and the calculation of the IC50 for each compound.

Chain of Recombinant human JAK2 catalytic domain (O60674 808-1132): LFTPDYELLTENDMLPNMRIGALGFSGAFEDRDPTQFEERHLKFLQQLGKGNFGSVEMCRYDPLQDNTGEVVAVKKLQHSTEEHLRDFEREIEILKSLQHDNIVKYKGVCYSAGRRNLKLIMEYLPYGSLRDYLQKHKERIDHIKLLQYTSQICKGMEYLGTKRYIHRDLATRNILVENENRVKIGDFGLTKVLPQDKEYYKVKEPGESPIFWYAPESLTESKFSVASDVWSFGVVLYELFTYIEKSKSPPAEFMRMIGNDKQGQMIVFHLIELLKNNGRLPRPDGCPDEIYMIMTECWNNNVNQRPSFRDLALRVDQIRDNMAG

| SMILES | IC50 [µM] |
| --- | --- |
| NC(=O)c1cccc(OCc2ccc(-c3cccc4nc(NC(=O)C5CC5)nn34)cc2)c1 [Compound 251, 3-{4-[2-(Cyclopropanecarbonyl-amino)-[1,2,4]triazolo[1,5-a]pyridin-5-yl]-benzyloxy}-benzamide] | 0.101 to 0.5 |
| CCN1C[C@H]2C[C@@H]1CN2Cc1ccc(-c2cccc3nc(NC(=O)C4CC4)nn23)cc1 [Compound 253, Cyclopropanecarboxylic acid {5-[4-((1R,4R)-5-ethyl-2,5-diaza-bicyclo[2.2.1]hept-2-ylmethyl)-phenyl]-[1,2,4]triazolo[1,5-a]pyridin-2-yl}-amide] | 0.501 to 1 |
| O=C(Nc1nc2cccc(-c3ccc(CN4CCOCC4=O)cc3)n2n1)C1CC1 [Compound 254, Cyclopropanecarboxylic Acid {5-[4-(3-oxo-morpholin-4-ylmethyl)-phenyl]-[1,2,4]triazolo[1,5-a]pyridin-2-yl}-amide] | 0.501 to 1 |
| COc1ccc(C(N)=O)cc1NCc1ccc(-c2cccc3nc(NC(=O)C4CC4)nn23)cc1 [Compound 255, 3-{4-[2-(Cyclopropanecarbonyl-amino)-[1,2,4]triazolo[1,5-a]pyridin-5-yl]-benzylamino}-4-methoxy-benzamide] | 0.501 to 1 |
| Cc1ccc(NCc2ccc(-c3cccc4nc(NC(=O)C5CC5)nn34)cc2)c(F)n1 [Compound 256, Cyclopropanecarboxylic acid (5-{4-[(2-fluoro-6-methyl-pyridin-3-ylamino)-methyl]-phenyl}-[1,2,4]triazolo[1,5-a]pyridin-2-yl)-amide] | 0.101 to 0.5 |
| N#Cc1ccc(NCc2ccc(-c3cccc4nc(NC(=O)C5CC5)nn34)cc2)c(F)c1 [Compound 258, Cyclopropanecarboxylic acid (5-{4-[(4-cyano-2-fluoro-phenylamino)-methyl]-phenyl}-[1,2,4]triazolo[1,5-a]pyridin-2-yl)-amide] | < 0.1 |
| O=C(Nc1nc2cccc(-c3ccc(CN4CCCC4)cc3)n2n1)C1CC1 [Compound 260, Cyclopropanecarboxylic acid [5-(4-pyrrolidin-1-ylmethyl-phenyl)-[1,2,4]triazolo[1,5-a]pyridin-2-yl]-amide] | 0.101 to 0.5 |

These molecules were tested against Recombinant human JAK1 catalytic domain (Homo sapiens (Human), UniProt P23458) (assay: JAK1 inhibition assay). Conditions: semi-quantitative score.
Chain of Recombinant human JAK1 catalytic domain (P23458 850-1154): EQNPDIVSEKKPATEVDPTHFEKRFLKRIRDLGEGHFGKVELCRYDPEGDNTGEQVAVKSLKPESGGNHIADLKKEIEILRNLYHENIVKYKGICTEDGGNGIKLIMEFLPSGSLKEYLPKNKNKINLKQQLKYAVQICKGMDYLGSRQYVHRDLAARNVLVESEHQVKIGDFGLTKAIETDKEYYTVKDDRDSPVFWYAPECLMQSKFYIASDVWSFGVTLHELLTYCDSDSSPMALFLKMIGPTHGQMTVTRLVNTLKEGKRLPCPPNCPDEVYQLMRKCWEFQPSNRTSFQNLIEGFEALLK
Assay type: biochemical
Protocol: Plates were washed 6 times with 300 μL per well of a 75 mM phosphoric acid solution and the bottom of the plates was sealed. 40 μL/well of Microscint-20 was added, the top of the plates was sealed and readout was performed using the Topcount (Perkin Elmer). Kinase activity was calculated by subtracting counts per minute (cpm) obtained in the presence of a positive control inhibitor (10 μM staurosporine) from cpm obtained in the presence of vehicle. The ability of a test compound to inhibit this activity was determined as: Percentage inhibition=((cpm determined for sample with test compound present−cpm determined for sample with positive control inhibitor) divided by (cpm determined in the presence of vehicle−cpm determined for sample with positive control inhibitor))*100%.
Dose dilution series were prepared for the compounds enabling the testing of dose-response effects in the JAK1 assay and the calculation of the IC50 for each compound.

| SMILES | IC50 [µM] |
| --- | --- |
| O=C(Nc1nc2cccc(-c3cnn(Cc4cccnc4)c3)n2n1)C1CC1 [Compound 185, Cyclopropanecarboxylic Acid [5-(1-pyridin-3-ylmethyl-1H-pyrazol-4-yl)-[1,2,4]triazolo[1,5-a]pyridin-2-yl]-amide] | < 0.1 |
| O=C(Nc1nc2cccc(-c3cn(Cc4ccccc4)nn3)n2n1)C1CC1 [Compound 187, N-(5-(1-benzyl-1H-1,2,3-triazol-4-yl)-[1,2,4]triazolo[1,5-a]pyridin-2-yl)cyclopropanecarboxamide] | 0.501 to 1 |
| O=C(Nc1nc2cccc(-c3cn(Cc4ccc(C(F)(F)F)nc4)nn3)n2n1)C1CC1 [Compound 188] | > 1 |
| O=C(Nc1nc2cccc(-c3ccc(NS(=O)(=O)C4CC4)nc3)n2n1)C1CC1 [Compound 191, N-(5-(6-(cyclopropanesulfonamido)pyridin-3-yl)-[1,2,4]triazolo[1,5-a]pyridin-2-yl)cyclopropanecarboxamide] | > 1 |
| O=C(Nc1nc2cccc(-c3cn(Cc4ccccn4)nn3)n2n1)C1CC1 [Compound 193] | > 1 |
| O=C(Nc1nc2cccc(-c3ccc(S(=O)(=O)Cc4ccccn4)cc3)n2n1)C1CC1 [Compound 194, N-(5-(4-(pyridin-2-ylmethylsulfonyl)phenyl)-[1,2,4]triazolo[1,5-a]pyridin-2-yl)cyclopropanecarboxamide] | 0.101 to 0.5 |
| O=C(Nc1nc2cccc(-c3ccc(S(=O)(=O)Cc4cccnc4)cc3)n2n1)C1CC1 [Compound 195, N-(5-(4-(pyridin-3-ylmethylsulfonyl)phenyl)-[1,2,4]triazolo[1,5-a]pyridin-2-yl)cyclopropanecarboxamide] | 0.101 to 0.5 |
| CC(=O)NC1CCN(C(=O)Cc2ccc(-c3cccc4nc(NC(=O)C5CC5)nn34)cc2)CC1 [Compound 323, Cyclopropanecarboxylic acid (5-{4-[2-(4-acetylamino-piperidin-1-yl)-2-oxo-ethyl]-phenyl}-[1,2,4]triazolo[1,5-a]pyridin-2-yl)-amide] | 0.501 to 1 |
